Source: patent US8785483B2, “Methods for treating COPD” (The Board of Regents of the University of Texas System, priority 2010, dated 2014)

How the values were obtained:
[1] = system: STAT-6; assay: RWE-induced STAT-6 phosphorylation in mouse lung epithelium (immunostaining); assay type: in vivo; conditions: RWE-sensitized and challenged mice, fidarestat 7 mg/kg body wt/day in drinking water, 20 h after challenge
Method: FIGS. 9A-9B. AR inhibition prevents phosphorylation of STAT-6 in mouse lung epithelium. The mice were sensitized and challenged with PBS or RWE, without or with AR inhibitor and 20 h later lungs were perfused and fixed with 4% paraformaldehyde, embedded in paraffin, and sectioned to […]. The sections were immunostained with p-STAT-6 specific antibodies using immunofluoroscence secondary antibodies (A) or DAB-based HRP conjugated antibodies counterstained with hematoxylin and eosin (B). Photomicrographs were acquired by fluorescence or light microscopy. A representative field for each group is shown (magnification: 200×). […] RWE, ragweed pollen extract; ARI, aldose reductase inhibitor.
Wild type C57BL/6 and Balb/cJ mice were purchased from Harlan Sprague-Dawley (San Diego, Calif., USA) and AR null mice on C57BL/6 background were bread by us at Animal resource center, UTMB, Galveston, Tex. Six-eight weeks old female mice were sensitized with RWE as previously described (Hwang et al., FASEB J. 19: 795-797, 2005). […]
Approximately 20 h after RWE-challenge, mice are killed, and their lungs perfused and fixed with 4% paraformaldehyde, embedded in paraffin, and 5 μm sections were obtained. […] Photomicrographs were acquired by a Photometrix CoolSNAP Fx camera mounted on a NIKON Eclipse TE 200 UV microscope using fluorescence or bright-field microscopy, respectively.

[2] = system: small airway epithelial cells (SAEC); assay: Cell viability (MTT) assay, CSE-induced cell death; assay type: cell-based, human; conditions: 24 h, with fidarestat (10 μM in FIG. 1 legend, 20 μM in method)
Method: FIG. 1. Inhibition of AR prevents cigarette smoke extract (CSE)-induced cell-death in small airway epithelial cells (SAEC). MTT assay was performed after incubating the cells for 24 h with different concentrations of CSE in absence and presence of 10 μM Fidarestat. Bars (Mean±SD; n=6) represent the absorbance at 570 nm corresponding to live cells. Primary human Small Airway Epithelial Cells (SAEC) obtained from Lonza (Walkersville, Md.) were normal human SAEC harvested from distal airspace of donor. The cells were cultured according to the supplier's instructions at 37° C. in humidified atmosphere containing 95% air and 5% CO2 in small airway epithelial basal medium (SABM) with supplements containing 52 μg/ml bovine pituitary extract, 0.5 ng/ml human recombinant epidermal growth factor (EGF), 0.5 μg/ml epinephrine, 1 μg/ml hydrocortisone, 10 μg/ml transferrin, 5 μg/ml insulin, 0.1 ng/ml retinoic acid (RA), 6.5 ng/ml triiodothyronine, 50 μg/ml Gentamicin/Amphotericin-B (GA-1000), and 50 μg/ml fatty acid-free bovine serum albumin (BSA). […] Absorbance was read at 570 nm using a 96-well ELISA plate reader.

Question: Which results are given for `NC(=O)[C@@H]1C[C@]2(NC(=O)NC2=O)c2cc(F)ccc2O1` [fidarestat, (2S,4S)-2-aminoformyl-6-fluoro-spiro[chroman-4,4′-imidazolidine]-2′,5′-dione]?
Answer: RWE-induced phospho-STAT-6 staining in lung epithelium [1]: prevented by AR inhibition; cells alive after CSE ([2]; 12.5% CSE): more than 95%; cells alive after CSE ([2]; 50% CSE): > 85%
